# Measurements reported in US5380834A, “Immuno-suppressive agent” (Ishihara Sangyo Kaisha Ltd., priority 1992, dated 1995).
# Legend:
# [1] = tested on: IgGl antibody production from murine spleen B cells; assay: Effects on the IgGl antibody production from murine spleen cells (LPS + IL4); assay type: cell-based, BALB/c mouse; conditions: Mus musculus, B-cell, 168 h; spleen B cells, LPS 10 μg/ml, IL4 100 U/ml, 7 days, enzyme-immunoassay; read-out: IC50 value, IgGl antibody production
# [2] = tested on: murine mixed lymphocyte reaction (spleen cells of BALB/c and C57BL/6 mice); assay: Effects on the murine mixed lymphocyte reaction (3H-TdR uptake); assay type: cell-based; conditions: Mus musculus, BALB/c + C57BL/6 spleen cells, 48 hours, read-out: IC50 value, b (murine mixed lymphocyte reaction)
# [3] = tested on: IgE antibody production from murine spleen B cells; assay: Effects on the IgE antibody production from murine spleen cells (LPS + IL4); assay type: cell-based, BALB/c mouse; conditions: Mus musculus, B-cell, 168 h; spleen B cells, LPS 10 μg/ml, IL4 100 U/ml, 7 days, enzyme-immunoassay; read-out: IC50 value, IgE antibody production
# [4] = tested on: Carrageenan-induced acute inflammation in rats; assay: Carrageenan-induced paw edema model (anti-inflammatory activity); assay type: in vivo, SD male rat; conditions: 50 mg/Kg orally one hour before carrageenan, 3 hours, n=4; control 144 ± 8; P < 0.01 (No. 29), P < 0.05 (Nos. 1, 17)
# Experimental: A test for an anti-inflammatory activity was conducted by means of carrageenan-induced paw edema model which is commonly used for evaluation of the effectiveness of a common anti-inflammatory agent (NSAID).
# 0.1 ml of a 1% λ-carrageenan solution was injected intradermally at the sole of the right paw of a SD male rat (six weeks old). Three hours later, the sole volumes of paws on both sides were measured, and the difference in the volume between the right paw and the left paw was taken as the degree of edema. The test compound was orally administered in an amount of 1 ml/100 g (body weight) one hour prior to the administration of carrageenan. To the control group, a physiological saline was administered in the same amount.
IC50 [1] [µg/mL],IC50 [2] [µg/mL],IC50 [3] [µg/mL],SMILES,"Swelling of paw, Average ± SD [4]"
380,> 1000,320,C#C[C@]1(O)C=C[C@H]2CO[C@@H]1O2 [Compound 29],97 ± 22 × 10^-2 cm^3
37,11,32,"O[C@H]1C=C[C@H]2CO[C@@H]1O2 [Compound 1, 1,6-anhydro-3,4-dideoxy-β-D-threo-hex-3-enopyranose]",100 ± 33 × 10^-2 cm^3
1,270,3.2,"O=C(O[C@H]1C=C[C@H]2CO[C@@H]1O2)c1ccco1 [Compound 17, 1,6-anhydro-3,4-dideoxy-2-O-(2-furancarbonyl)-β-D-threo-hex-3-enopyranose]",95 ± 26 × 10^-2 cm^3
